Reference: ChEMBL document CHEMBL1201861, “Genomics of Drug Sensitity in Cancer screening data, Wellcome Trust Sanger Institute”

Experiments:
Assay in all cases: cells
D-247MG = assay type: functional, cell-based, Homo sapiens; conditions: Homo sapiens, D-247MG
Description: SANGER: Inhibition of human D-247MG cell growth in a cell viability assay.

DJM-1 = assay type: functional, cell-based, Homo sapiens; conditions: Homo sapiens, DJM-1
Description: SANGER: Inhibition of human DJM-1 cell growth in a cell viability assay.

GCT = assay type: functional, cell-based, Homo sapiens; conditions: Homo sapiens, GCT
Description: SANGER: Inhibition of human GCT cell growth in a cell viability assay.

Daoy = assay type: functional, cell-based, Homo sapiens; conditions: Homo sapiens, Daoy
Description: SANGER: Inhibition of human Daoy cell growth in a cell viability assay.

LN-405 = assay type: functional, cell-based, Homo sapiens; conditions: Homo sapiens, LN-405
Description: SANGER: Inhibition of human LN-405 cell growth in a cell viability assay.

CTB-1 = assay type: functional, cell-based; conditions: Homo sapiens
Description: SANGER: Inhibition of human CTB-1 cell growth in a cell viability assay.

EGI-1 = assay type: functional, cell-based, Homo sapiens; conditions: Homo sapiens, EGI-1
Description: SANGER: Inhibition of human EGI-1 cell growth in a cell viability assay.

8305C = assay type: functional, cell-based, Homo sapiens; conditions: Homo sapiens, 8305C
Description: SANGER: Inhibition of human 8305C cell growth in a cell viability assay.

SW 962 = assay type: functional, cell-based, Homo sapiens; conditions: Homo sapiens, SW 962
Description: SANGER: Inhibition of human SW962 cell growth in a cell viability assay.

KARPAS-45 = assay type: functional, cell-based; conditions: Homo sapiens
Description: SANGER: Inhibition of human KARPAS-45 cell growth in a cell viability assay.

TGBC24TKB = assay type: functional, cell-based, Homo sapiens; conditions: Homo sapiens, TGBC24TKB
Description: SANGER: Inhibition of human TGBC24TKB cell growth in a cell viability assay.

ETK-1 = assay type: functional, cell-based, Homo sapiens; conditions: Homo sapiens, ETK-1
Description: SANGER: Inhibition of human ETK-1 cell growth in a cell viability assay.

NB5 = assay type: functional, cell-based, Homo sapiens; conditions: Homo sapiens, NB5
Description: SANGER: Inhibition of human NB5 cell growth in a cell viability assay.

NOMO-1 = assay type: functional, cell-based; conditions: Homo sapiens
BT-20 = assay type: functional, cell-based, Homo sapiens; conditions: Homo sapiens, BT-20
Description: SANGER: Inhibition of human BT-20 cell growth in a cell viability assay.

SK-MEL-24 = assay type: functional, cell-based; conditions: Homo sapiens
Description: SANGER: Inhibition of human SK-MEL-24 cell growth in a cell viability assay.

TE-6 = assay type: functional, cell-based, Homo sapiens; conditions: Homo sapiens, TE-6
Description: SANGER: Inhibition of human TE-6 cell growth in a cell viability assay.

GB-1 = assay type: functional, cell-based, Homo sapiens; conditions: Homo sapiens, GB-1
Description: SANGER: Inhibition of human GB-1 cell growth in a cell viability assay.

MOLT-16 = assay type: functional, cell-based; conditions: Homo sapiens
Description: SANGER: Inhibition of human MOLT-16 cell growth in a cell viability assay.

SW-620 = assay type: functional, cell-based, Homo sapiens; conditions: Homo sapiens, SW-620
Description: SANGER: Inhibition of human SW620 cell growth in a cell viability assay.

RMG-I = assay type: functional, cell-based, Homo sapiens; conditions: Homo sapiens, RMG-I
Description: SANGER: Inhibition of human RMG-I cell growth in a cell viability assay.

SW684 = assay type: functional, cell-based, Homo sapiens; conditions: Homo sapiens, SW684
Description: SANGER: Inhibition of human SW684 cell growth in a cell viability assay.

COLO-320-HSR = assay type: functional, cell-based; conditions: Homo sapiens
Description: SANGER: Inhibition of human COLO-320-HSR cell growth in a cell viability assay.

MSTO-211H = assay type: functional, cell-based, Homo sapiens; conditions: Homo sapiens, MSTO-211H
Description: SANGER: Inhibition of human MSTO-211H cell growth in a cell viability assay.

LC-2-ad = assay type: functional, cell-based, Homo sapiens; conditions: Homo sapiens, LC-2-ad
Description: SANGER: Inhibition of human LC-2-ad cell growth in a cell viability assay.

HuTu80 = assay type: functional, cell-based, Homo sapiens, HUTU-80; conditions: Homo sapiens, HuTu80
Description: SANGER: Inhibition of human HUTU-80 cell growth in a cell viability assay.

HuO-3N1 = assay type: functional, cell-based, Homo sapiens; conditions: Homo sapiens, HuO-3N1
Description: SANGER: Inhibition of human HuO-3N1 cell growth in a cell viability assay.

SCC-15 = assay type: functional, cell-based, Homo sapiens; conditions: Homo sapiens, SCC-15
Description: SANGER: Inhibition of human SCC-15 cell growth in a cell viability assay.

NCI-H526 = assay type: functional, cell-based; conditions: Homo sapiens
Description: SANGER: Inhibition of human NCI-H526 cell growth in a cell viability assay.

RVH-421 = assay type: functional, cell-based, Homo sapiens; conditions: Homo sapiens, RVH-421
Description: SANGER: Inhibition of human RVH-421 cell growth in a cell viability assay.

MC116 = assay type: functional, cell-based; conditions: Homo sapiens
Description: SANGER: Inhibition of human MC116 cell growth in a cell viability assay.

KM-H2 = assay type: functional, cell-based; conditions: Homo sapiens
Description: SANGER: Inhibition of human KM-H2 cell growth in a cell viability assay.

ES5 = assay type: functional, cell-based, Homo sapiens; conditions: Homo sapiens, ES5
KURAMOCHI = assay type: functional, cell-based; conditions: Homo sapiens
Description: SANGER: Inhibition of human KURAMOCHI cell growth in a cell viability assay.

BB49-HNC = assay type: functional, cell-based, Homo sapiens; conditions: Homo sapiens, BB49-HNC
Description: SANGER: Inhibition of human BB49-HNC cell growth in a cell viability assay.

MV4-11 = assay type: functional, cell-based, MV-4-11; conditions: Homo sapiens
Description: SANGER: Inhibition of human MV-4-11 cell growth in a cell viability assay.

NCI-H1092 = assay type: functional, cell-based; conditions: Homo sapiens
Description: SANGER: Inhibition of human NCI-H1092 cell growth in a cell viability assay.

LB831-BLC = assay type: functional, cell-based, Homo sapiens; conditions: Homo sapiens, LB831-BLC
Description: SANGER: Inhibition of human LB831-BLC cell growth in a cell viability assay.

NCI-H2342 = assay type: functional, cell-based; conditions: Homo sapiens
Description: SANGER: Inhibition of human NCI-H2342 cell growth in a cell viability assay.

DBTRG-05MG = assay type: functional, cell-based, Homo sapiens; conditions: Homo sapiens, DBTRG-05MG
Description: SANGER: Inhibition of human DBTRG-05MG cell growth in a cell viability assay.

UACC-893 = assay type: functional, cell-based, Homo sapiens; conditions: Homo sapiens, UACC-893
Description: SANGER: Inhibition of human UACC-893 cell growth in a cell viability assay.

SF-126 = assay type: functional, cell-based, Homo sapiens; conditions: Homo sapiens, SF-126
Description: SANGER: Inhibition of human SF126 cell growth in a cell viability assay.

LoVo = assay type: functional, cell-based; conditions: Homo sapiens
Description: SANGER: Inhibition of human LoVo cell growth in a cell viability assay.

KYSE-410 = assay type: functional, cell-based, Homo sapiens; conditions: Homo sapiens, KYSE-410
Description: SANGER: Inhibition of human KYSE-410 cell growth in a cell viability assay.

SiHa = assay type: functional, cell-based, Homo sapiens; conditions: Homo sapiens, SiHa
Description: SANGER: Inhibition of human SiHa cell growth in a cell viability assay.

COLO-792 = assay type: functional, cell-based, Homo sapiens; conditions: Homo sapiens, COLO-792
Description: SANGER: Inhibition of human COLO-792 cell growth in a cell viability assay.

GR-ST = assay type: functional, cell-based; conditions: Homo sapiens
Description: SANGER: Inhibition of human GR-ST cell growth in a cell viability assay.

G-402 = assay type: functional, cell-based, Homo sapiens; conditions: Homo sapiens, G-402
Description: SANGER: Inhibition of human G-402 cell growth in a cell viability assay.

NCI-H1650 = assay type: functional, cell-based, Homo sapiens; conditions: Homo sapiens, NCI-H1650
Description: SANGER: Inhibition of human NCI-H1650 cell growth in a cell viability assay.

OAW-28 = assay type: functional, cell-based, Homo sapiens; conditions: Homo sapiens, OAW-28
Description: SANGER: Inhibition of human OAW-28 cell growth in a cell viability assay.

KG-1 = assay type: functional, cell-based; conditions: Homo sapiens
JAR = assay type: functional, cell-based, Homo sapiens; conditions: Homo sapiens, JAR

## COC(=O)CNC(=O)C(=O)OC
D-247MG
  IC50: 2410 µM
DJM-1
  IC50: 215 µM
GCT
  IC50: > 4000 µM
Daoy
  IC50: 247 µM
LN-405
  IC50: 1610 µM
CTB-1
  IC50: 86 µM
EGI-1
  IC50: 329 µM
8305C
  IC50: 603 µM
SW 962
  IC50: 265 µM
KARPAS-45
  IC50: 484 µM
TGBC24TKB
  IC50: > 4000 µM
ETK-1
  IC50: 525 µM
NB5
  IC50: > 4000 µM
NOMO-1
  IC50: 154 µM
BT-20
  IC50: 947 µM
SK-MEL-24
  IC50: > 4000 µM
TE-6
  IC50: 1360 µM
GB-1
  IC50: 94 µM
MOLT-16
  IC50: 127 µM
SW-620
  IC50: 3230 µM
RMG-I
  IC50: 820 µM
SW684
  IC50: 2470 µM
COLO-320-HSR
  IC50: > 4000 µM
MSTO-211H
  IC50: > 4000 µM
LC-2-ad
  IC50: 24.6 µM
HuTu80
  IC50: 1260 µM
HuO-3N1
  IC50: 701 µM
SCC-15
  IC50: 1030 µM
NCI-H526
  IC50: 536 µM
RVH-421
  IC50: 1310 µM
MC116
  IC50: 174 µM
KM-H2
  IC50: > 4000 µM
ES5
  IC50: > 4000 µM
KURAMOCHI
  IC50: 1570 µM
BB49-HNC
  IC50: 611 µM
MV4-11
  IC50: 276 µM
NCI-H1092
  IC50: 1200 µM
LB831-BLC
  IC50: 911 µM
NCI-H2342
  IC50: 104 µM
DBTRG-05MG
  IC50: 311 µM
UACC-893
  IC50: > 4000 µM
SF-126
  IC50: 220 µM
LoVo
  IC50: 951 µM
KYSE-410
  IC50: 20.8 µM
SiHa
  IC50: 1180 µM
COLO-792
  IC50: > 4000 µM
GR-ST
  IC50: 213 µM
G-402
  IC50: 1230 µM
NCI-H1650
  IC50: 329 µM
OAW-28
  IC50: 2110 µM
KG-1
  IC50: 81.6 µM

## C=CCc1cccc(/C=N/NC(=O)CN2CCN(Cc3ccccc3)CC2)c1O [PAC-1]
DJM-1
  IC50: > 2.56 µM
GCT
  IC50: > 2.56 µM
Daoy
  IC50: 2.19 µM
LN-405
  IC50: > 2.56 µM
JAR
  IC50: > 2.56 µM
CTB-1
  IC50: 1.44 µM
EGI-1
  IC50: > 2.56 µM
8305C
  IC50: > 2.56 µM
SW 962
  IC50: > 2.56 µM
KARPAS-45
  IC50: > 2.56 µM
TGBC24TKB
  IC50: > 2.56 µM
ETK-1
  IC50: 2.48 µM
NB5
  IC50: > 2.56 µM
NOMO-1
  IC50: > 2.56 µM
BT-20
  IC50: > 2.56 µM
SK-MEL-24
  IC50: > 2.56 µM
TE-6
  IC50: > 2.56 µM
GB-1
  IC50: > 2.56 µM
MOLT-16
  IC50: > 2.56 µM
SW-620
  IC50: > 2.56 µM
RMG-I
  IC50: > 2.56 µM
SW684
  IC50: > 2.56 µM
COLO-320-HSR
  IC50: > 2.56 µM
MSTO-211H
  IC50: > 2.56 µM
LC-2-ad
  IC50: 0.898 µM
HuTu80
  IC50: > 2.56 µM
HuO-3N1
  IC50: > 2.56 µM
SCC-15
  IC50: > 2.56 µM
NCI-H526
  IC50: > 2.56 µM
RVH-421
  IC50: > 2.56 µM
MC116
  IC50: 1.21 µM
KM-H2
  IC50: > 2.56 µM
ES5
  IC50: > 2.56 µM
KURAMOCHI
  IC50: > 2.56 µM
BB49-HNC
  IC50: > 2.56 µM
MV4-11
  IC50: > 2.56 µM
NCI-H1092
  IC50: > 2.56 µM
LB831-BLC
  IC50: > 2.56 µM
NCI-H2342
  IC50: > 2.56 µM
DBTRG-05MG
  IC50: > 2.56 µM
UACC-893
  IC50: > 2.56 µM
SF-126
  IC50: > 2.56 µM
LoVo
  IC50: > 2.56 µM
KYSE-410
  IC50: 1.18 µM
SiHa
  IC50: > 2.56 µM
COLO-792
  IC50: > 2.56 µM
GR-ST
  IC50: > 2.56 µM
G-402
  IC50: > 2.56 µM
NCI-H1650
  IC50: > 2.56 µM
OAW-28
  IC50: > 2.56 µM
KG-1
  IC50: > 2.56 µM

## Cc1ccc(Nc2nccc(N(C)c3ccc4c(C)n(C)nc4c3)n2)cc1S(N)(=O)=O [PAZOPANIB]
DJM-1
  IC50: > 8 µM
GCT
  IC50: > 8 µM
Daoy
  IC50: 4.78 µM
LN-405
  IC50: > 8 µM
JAR
  IC50: > 8 µM
CTB-1
  IC50: > 8 µM
EGI-1
  IC50: > 8 µM
8305C
  IC50: > 8 µM
SW 962
  IC50: > 8 µM
KARPAS-45
  IC50: > 8 µM
TGBC24TKB
  IC50: > 8 µM
ETK-1
  IC50: > 8 µM
NB5
  IC50: > 8 µM
NOMO-1
  IC50: > 8 µM
BT-20
  IC50: > 8 µM
SK-MEL-24
  IC50: > 8 µM
TE-6
  IC50: > 8 µM
GB-1
  IC50: 5.73 µM
MOLT-16
  IC50: > 8 µM
SW-620
  IC50: > 8 µM
RMG-I
  IC50: > 8 µM
SW684
  IC50: > 8 µM
COLO-320-HSR
  IC50: > 8 µM
MSTO-211H
  IC50: > 8 µM
LC-2-ad
  IC50: > 8 µM
HuTu80
  IC50: 1.28 µM
HuO-3N1
  IC50: > 8 µM
SCC-15
  IC50: > 8 µM
NCI-H526
  IC50: > 8 µM
RVH-421
  IC50: > 8 µM
MC116
  IC50: > 8 µM
KM-H2
  IC50: > 8 µM
ES5
  IC50: > 8 µM
KURAMOCHI
  IC50: > 8 µM
BB49-HNC
  IC50: > 8 µM
MV4-11
  IC50: 1.35 µM
NCI-H1092
  IC50: > 8 µM
LB831-BLC
  IC50: 2.55 µM
NCI-H2342
  IC50: 3.13 µM
DBTRG-05MG
  IC50: > 8 µM
UACC-893
  IC50: > 8 µM
SF-126
  IC50: 2.47 µM
LoVo
  IC50: > 8 µM
KYSE-410
  IC50: > 8 µM
SiHa
  IC50: > 8 µM
COLO-792
  IC50: > 8 µM
GR-ST
  IC50: > 8 µM
G-402
  IC50: 0.532 µM
NCI-H1650
  IC50: > 8 µM
OAW-28
  IC50: > 8 µM
KG-1
  IC50: 0.718 µM

## Cn1cncc1[C@@](N)(c1ccc(Cl)cc1)c1ccc2c(c1)c(-c1cccc(Cl)c1)cc(=O)n2C [TIPIFARNIB]
DJM-1
  IC50: > 16 µM
GCT
  IC50: > 16 µM
Daoy
  IC50: 0.0575 µM
LN-405
  IC50: > 16 µM
JAR
  IC50: > 16 µM
CTB-1
  IC50: 7.81 µM
EGI-1
  IC50: 11.6 µM
8305C
  IC50: 0.976 µM
SW 962
  IC50: 2.15 µM
KARPAS-45
  IC50: 12.9 µM
TGBC24TKB
  IC50: > 16 µM
ETK-1
  IC50: 0.0215 µM
NB5
  IC50: > 16 µM
NOMO-1
  IC50: > 16 µM
BT-20
  IC50: > 16 µM
SK-MEL-24
  IC50: 1.71 µM
TE-6
  IC50: 7.21 µM
GB-1
  IC50: 3.7 µM
MOLT-16
  IC50: 0.258 µM
SW-620
  IC50: 0.482 µM
RMG-I
  IC50: > 16 µM
SW684
  IC50: > 16 µM
COLO-320-HSR
  IC50: 13.6 µM
MSTO-211H
  IC50: > 16 µM
LC-2-ad
  IC50: 1.49 µM
HuTu80
  IC50: 0.285 µM
HuO-3N1
  IC50: 4.17 µM
SCC-15
  IC50: 10.8 µM
NCI-H526
  IC50: > 16 µM
RVH-421
  IC50: > 16 µM
MC116
  IC50: 4.03 µM
KM-H2
  IC50: > 16 µM
ES5
  IC50: > 16 µM
KURAMOCHI
  IC50: 4.78 µM
BB49-HNC
  IC50: 5.86 µM
MV4-11
  IC50: 0.733 µM
NCI-H1092
  IC50: > 16 µM
LB831-BLC
  IC50: 2.64 µM
NCI-H2342
  IC50: 0.38 µM
DBTRG-05MG
  IC50: 14.4 µM
UACC-893
  IC50: > 16 µM
SF-126
  IC50: 3.88 µM
LoVo
  IC50: 0.241 µM
KYSE-410
  IC50: 3.5 µM
SiHa
  IC50: > 16 µM
COLO-792
  IC50: 12.2 µM
GR-ST
  IC50: 2.87 µM
G-402
  IC50: 2.11 µM
NCI-H1650
  IC50: > 16 µM
OAW-28
  IC50: > 16 µM
KG-1
  IC50: 3.06 µM
